Measured values published in patent US10590422B2, “Anticancer therapeutic intervention” (PHYZAT BIOPHARMACEUTICALS, LDA., priority 2017, dated 2020).

How the values were obtained:
[1] = tested on: human colon cancer HTC-116 cells xenograft tumour; test: Xenograft tumour model, relative tumour volume, intratumoral injections; assay type: in vivo, NMRI nu/nu mice; conditions: immune deficient mice, subcutaneous HTC-116; 10 μg intratumoral (50 μL) every other day; versus vehicle (Injectin); FIG. 23
Description: Human colon cancer HTC-116 cells grown in tissue culture and 10^7 cells per mouse were injected into the hind flank of female NMRI nu/nu mice. Once tumours have developed and tumour volumes reached randomisation criteria, therapy will commence by every other day […], intra-tumoral injections. A vehicle treated group was included in the study as control. Female immunodeficient NMRI nu/nu mice from Charles River were used. The animals were delivered at the age of 4-6 weeks and are used for implantation after at least 1 week of quarantine. […] During the experiments, animals were monitored at least daily. […]
The tumour volume was determined by a two-dimensional measurement with callipers on the day of randomization (Day 0) and then twice weekly. Tumour volumes were calculated according to the following equation: Tumour Vol [mm^3]=a [mm]×b^2 [mm^2]×0.5 […]
The relative volume of an individual tumour on day X (RTVx) was calculated by dividing the absolute volume [mm^3] of the respective tumour on day X (Tx) by the absolute volume of the same tumour on the day of randomization, i. e. on day 0 (T0), multiplied by 100, as shown by the following equation: […]
Group median and range (alternatively geometric mean+/−SEM) of RTVs were calculated, considering only the tumours of animals that were alive on the day in question (for median). […]

[2] = tested on: human colon cancer HTC-116 cells; test: Cell proliferation assay (calcein-AM) in human colon cancer HTC-116 cells; assay type: cell-based; conditions: for Decrease in cell proliferation greater the higher the concentration of Injectin in the siRNA:Injectin complexes: Injectin 0.037% to 0.15%; for cell proliferation / proliferation: treatment 6 h; for proliferation: at 72 h, 0.17% Lipofectamine 2000 or 0.1% Injectin, FIGS. 19B and 20B
Description: SK-HEP-1, T24, HT-1080 and HCT-116 cell lines were maintained in a humidified atmosphere of 5% CO2 at 37° C. SK-HEP-1 cells were grown in RPMI-1640 (Sigma, St. Louis, Mo.) supplemented with 20% fetal bovine serum (FBS) (Gibco, UK), 100 U/mL penicillin G, 0.25 μg/mL amphotericin B, 100 μg/mL streptomycin (Gibco, UK), 25 mM sodium bicarbonate (Merck, Germany) and 25 mM N-2-hydroxyethylpiperazine-N′-2-ethanosulfonic acid (HEPES) (Sigma, St. Louis, Mo.). T24 and HT-1080 cells were grown, respectively, in Dulbecco's Modified Eagle's Medium (DMEM)—high glucose (Sigma, St. Louis, Mo.) and DMEM—low glucose (Sigma, St. Louis, Mo.), supplemented with 10% FBS (Gibco, UK), 100 U/mL penicillin G, 0.25 μg/mL amphotericin B, 100 μg/mL streptomycin (Gibco, UK), 25 mM sodium bicarbonate (Merck, Germany) and 25 mM HEPES (Sigma, St. Louis, Mo.). HCT-116 cells were grown in McCoy's 5A (Sigma, St. Louis, Mo.) supplemented with 10% FBS (Gibco, UK), 100 U/mL penicillin G, 0.25 μg/mL amphotericin B, 100 μg/mL streptomycin (Gibco, UK), 25 mM sodium bicarbonate (Merck, Germany) and 25 mM HEPES (Sigma, St. Louis, Mo.). For all cell lines the medium was changed every 2 days, and cells reached confluence 3-4 days after initial seeding. For subculturing, cells were dissociated with 0.25% trypsin-ethylenediaminetetraacetic acid (EDTA) (Sigma, St. Louis, Mo.), split 1:15 or 1:20 and subcultured in a 21-cm^2 growth area (Sarstedt, Germany).
Cell proliferation was measured using calcein-AM (Thermo Fisher Scientific, USA). The membrane permeant calcein-AM, a nonfluorescent dye, is taken up and converted by intracellular esterases to membrane impermeant calcein, which emits green fluorescence. Cells were plated in 96-well plates with black walls clear bottom (BD Biosciences, USA) and incubated 24 h under normal growth conditions. Cells were incubated with test items at 37° C., 5% C02. After the incubation period, serum and antibiotic was restored and cells were further incubated at normal conditions during 72 h. After treatment with test substances or vehicle, cells were washed twice with Hanks' medium and loaded with 2 μM calcein-AM in Hanks' medium, at 37° C. for 30 min. Fluorescence was measured at 485 nm excitation and 530 nm emission wavelengths in a microplate spectrofluorometer (Gemini EM, Molecular Devices). Nine consecutive fluorescence measurements are performed per well, to allow fluorescence readings in the whole area of the well, which was then considered for the calculation of mean fluorescence per well. To determine minimum staining for calcein (calceinmin), eight wells were treated with ethanol 30 min before calcein-AM addition. The percent cell number is calculated as [(calceinsample)/(calceincontrol)]×100.

[3] = 72 h exposure, 0.1% Injectin, FIG. 14
[4] = 72 h exposure, increasing Injectin (0.037% to 0.15%), FIG. 15

Row | Substance | reduction in relative tumour volume [1] | proliferation (siRNA-LAT1 alone) ([2]; 25 nM, 72 h exposure, Injectin, FIG. 18A) | Effect of 5-fluoruracil upon proliferation in combination with the siRNA ([2]; 5-FU 10 μM, siRNA 25 nM, 72 h, 0.037% Injectin, FIG. 17A) | Effect of 5-fluoruracil upon proliferation in combination with the siRNA ([2]; 5-FU 3 and 10 μM, siRNA 5 and 25 nM, concentration dependent, 72 h, 0.25% Lipofectamine 2000, FIG. 16) | Decrease in cell proliferation greater the higher the concentration of Injectin in the siRNA:Injectin complexes ([2]; 72 h, FIG. 15) | Effect of cisplatin upon proliferation in combination with the siRNA ([2]; Cisp 3 and 10 μM, siRNA 5 and 25 nM, concentration dependent, 72 h, 0.25% Lipofectamine 2000, FIG. 16) | Effect of oxaliplatin upon proliferation in combination with the siRNA ([2]; Oxa 1 and 3 μM, siRNA 5 and 25 nM, concentration dependent, 72 h, 0.25% Lipofectamine 2000, FIG. 16) | cell proliferation [2, 3] | cell proliferation [2, 4] | proliferation [2] | Enhancement of effects of 5-fluoruracil compared with SEQ ID NO: 267/397/398 ([2]; 5-FU 10 μM, 72 h, FIG. 17B) | Effect of siRNA-LAT1 SEQ ID NO: 58/387/388 upon proliferation in combination with the siRNA-ASCT2 ([2]; 72 h, siRNA-ASCT2 at non-efficacious conditions (0.037% Injectin), FIG. 18)
1 | 58/387/388 (sense CUUCGCCACCUACCUGCUCAATT; antisense UUGAGCAGGUAGGUGGCGAAGTT; siRNA; sugars by position and backbone not given here; further chemistry not fully specified) | statistically significant | significant decrease | enhanced | significantly enhanced | particularly evident | significantly enhanced | significantly enhanced | decreased | decreased | significantly decreased | – | –
2 | 278/403/404 (sense UGCCACGGUCGCCUCUGAGAATT; antisense UUCUCAGAGGCGACCGUGGCATT; siRNA; sugars by position and backbone not given here; further chemistry not fully specified) | statistically significant | – | – | – | particularly evident | – | – | decreased | decreased | significantly decreased | more marked | enhanced
